Reference: patent US12460003B2, “Methods of assessing and treating cancer in subjects having dysregulated lymphatic systems” (Ensemble Group Holdings, priority 2016, dated 2025)

Experiments:
[1] = tested on: LLC lung cancer or 4T1 breast cancer cells; assay: Example 2: syngeneic tumor models treated with lymphatic system modulator plus immunotherapy or chemotherapy; assay type: in vivo, syngeneic mice (C57 Black 6 and BALB/c)
Experimental: One to two million cells of either LLC lung cancer or 4T1 breast cancer cells are subcutaneously implanted into syngeneic mice (C57 Black 6 and BALB/c). Animals are treated with vehicle alone as a control, with chemotherapy (cisplatin), or with immunotherapy alone (anti-PD-1 mAb). Animals are imaged by intravascular ultrasound (IVUS), CT/PET, or MRI, for growth of the primary tumor and for metastatic spread of the tumor. Blood samples are obtained for a multiplexed measure of serum biomarkers of lymphatic biology function (Millipore mouse 24 plex; MAGPMAG-24K). Around Study Day 10, animals are injected with 1-1.5 million more tumor cells into the tail vein. Between Study Days 13 and 16, the primary tumor is surgically resected, and animals resume treatment. […]
Animals are imaged weekly, and blood for serum multiplex measurements is continued and evaluated. Survival studies and analyses are performed, and animals are evaluated based on overall survival, progression-free survival, objective and durable response, and serum biomarker measurements. Lung tissue, lymphatics, and regional lymph nodes and tumor tissue are concurrently evaluated upon animal sacrifice for functional immune evaluation and analysis of the tumor and disease analysis.

[2] = tested on: 4T1 and LLC tumor cells, also transfected to overexpress VEGF-C; assay: Example 3: syngeneic 4T1 and LLC models incl. VEGF-C overexpressing tumor cells, lymphangitic carcinomatosis; assay type: in vivo, syngeneic mice; settings: preventative treatment, alone or with an immune modulator or chemotherapy
Experimental: The experiments from Example 2 are performed using the same animal models (4T1 and LLC) in syngeneic mice. Another group of tumor cells is transfected to overexpress VEGF-C to stimulate severe lymphatic dysregulation. Overexpression of VEGF C by tumor cells can result in a severe lymphatic dysregulation and an extremely aggressive lymphangitic carcinomatosis, which is a subset of the groups of dysregulated lymphatic disorders resistant to immunotherapy (Example 1). […] In this experiment, it is evaluated whether advanced tumors with inherent lymphatic dysregulation or with exaggerated lymphatic dysregulation driven by VEGF C hyperexpression can be treated and whether treatment can prevent mice with cancers from progressing to severe lymphangitic carcinomatosis.
Treatment groups include (1) anti-PD-1 mAb alone; (2) anti-PD-1-mAb plus lymphatic system modulator (anti-VEGF C or anti-VEGF R3 mAb, or SAR131675); (3) cisplatin alone; (4) lymphatic system modulator (anti-VEGF C or anti-VEGF R3 mAb, or SAR131675) plus cisplatin; and (5) negative control (no treatment).

Compound | immunological function ([1]; concurrent with immune modulator (checkpoint inhibitor) or chemotherapy (cisplatin)) | objective and functional outcomes [2] | progression to lymphangitic carcinomatosis [2] | response of animals to single agent ([1]; agent alone)
CCn1c(N)c(C(=O)NC)c(=O)c2ccc(C#C[C@@](C)(O)COC)nc21 [SAR131675] | functional immunological improvements | significantly improves | no mouse progresses | 
N.N.[Cl][Pt][Cl] [cisplatin] |  |  |  | no to marginal response
